Patent US20200032271A1, “COMBINATION THERAPY WITH LIPOSOMAL ANTISENSE OLIGONUCLEOTIDES” (Bio-Path Holdings, Inc., priority 2016, published 2020)
[PEt] = P-ethoxy (ethyl phosphotriester) internucleoside linkage

Test: Adverse events in study 2003-0578 (NCI CTCAE grading)

BP1001: liposome-incorporated P-ethoxy antisense oligodeoxynucleotide (5′-ATATTTGGCGATGGCTTC-3′, SEQ ID NO: 1) specific to grb2 mRNA, in neutral DOPC liposomes (DNA, all [PEt], methylation of C not given here; incorporated in neutral DOPC liposomes)
3: Metabolism and nutritional disorders ≥Grade 3, number of patients (monotherapy 10 mg/m^2 (n = 6)) | Respiratory, thoracic, and mediastinal disorders ≥Grade 3, number of patients (monotherapy 10 mg/m^2 (n = 6)) | AML progression, number of patients (monotherapy 40 mg/m^2 (n = 3)) | Patients with AEs ≥Grade 3, number of patients (monotherapy 40 mg/m^2 (n = 3)) | AML progression, number of patients (monotherapy 60 mg/m^2 (n = 3))
1: Hypoxia ≥Grade 3, number of patients (monotherapy 10 mg/m^2 (n = 6)) | Multi-organ failure ≥Grade 3, number of patients (monotherapy 10 mg/m^2 (n = 6)) | Neoplasms benign, malignant, and unspecified (incl. cysts and polyps) ≥Grade 3, number of patients (monotherapy 10 mg/m^2 (n = 6)) | Respiratory failure ≥Grade 3, number of patients (monotherapy 10 mg/m^2 (n = 6)) | AML progression, number of patients (monotherapy 20 mg/m^2 (n = 3)) | Blood and lymphatic system disorders ≥Grade 3, number of patients (monotherapy 20 mg/m^2 (n = 3)) | Leukocytosis ≥Grade 3, number of patients (monotherapy 20 mg/m^2 (n = 3)) | Patients with AEs ≥Grade 3, number of patients (monotherapy 20 mg/m^2 (n = 3)) | Acute kidney injury ≥Grade 3, number of patients (monotherapy 40 mg/m^2 (n = 3)) | Blood and lymphatic system disorders ≥Grade 3, number of patients (monotherapy 40 mg/m^2 (n = 3)) | Dyspnea ≥Grade 3, number of patients (monotherapy 40 mg/m^2 (n = 3)) | Hypokalemia ≥Grade 3, number of patients (monotherapy 40 mg/m^2 (n = 3)) | Leukocytosis ≥Grade 3, number of patients (monotherapy 40 mg/m^2 (n = 3)) | Metabolism and nutritional disorders ≥Grade 3, number of patients (monotherapy 40 mg/m^2 (n = 3)) | Renal and urinary disorders ≥Grade 3, number of patients (monotherapy 40 mg/m^2 (n = 3)) | Respiratory, thoracic, and mediastinal disorders ≥Grade 3, number of patients (monotherapy 40 mg/m^2 (n = 3))
0: Hypovolemia ≥Grade 3, number of patients (monotherapy 10 mg/m^2 (n = 6)) | Investigations ≥Grade 3, number of patients (monotherapy 10 mg/m^2 (n = 6)) | Penile Pain ≥Grade 3, number of patients (monotherapy 10 mg/m^2 (n = 6)) | Platelet count decreased ≥Grade 3, number of patients (monotherapy 10 mg/m^2 (n = 6)) | Psychiatric disorders ≥Grade 3, number of patients (monotherapy 10 mg/m^2 (n = 6)) | Renal and urinary disorders ≥Grade 3, number of patients (monotherapy 10 mg/m^2 (n = 6)) | Reproductive system and breast disorders ≥Grade 3, number of patients (monotherapy 10 mg/m^2 (n = 6)) | Tumor lysis syndrome ≥Grade 3, number of patients (monotherapy 10 mg/m^2 (n = 6)) | Vascular disorders ≥Grade 3, number of patients (monotherapy 10 mg/m^2 (n = 6)) | Abdominal Pain ≥Grade 3, number of patients (monotherapy 20 mg/m^2 (n = 3)) | Acidosis ≥Grade 3, number of patients (monotherapy 20 mg/m^2 (n = 3)) | Acute kidney injury ≥Grade 3, number of patients (monotherapy 20 mg/m^2 (n = 3)) | Asthenia ≥Grade 3, number of patients (monotherapy 20 mg/m^2 (n = 3)) | Back Pain ≥Grade 3, number of patients (monotherapy 20 mg/m^2 (n = 3)) | Cardiac disorders ≥Grade 3, number of patients (monotherapy 20 mg/m^2 (n = 3)) | Cataract ≥Grade 3, number of patients (monotherapy 20 mg/m^2 (n = 3)) | Dyspnea ≥Grade 3, number of patients (monotherapy 20 mg/m^2 (n = 3)) | Extremity Lower Edema ≥Grade 3, number of patients (monotherapy 20 mg/m^2 (n = 3)) | Eye disorders ≥Grade 3, number of patients (monotherapy 20 mg/m^2 (n = 3)) | Febrile neutropenia ≥Grade 3, number of patients (monotherapy 20 mg/m^2 (n = 3)) | Gastrointestinal disorders ≥Grade 3, number of patients (monotherapy 20 mg/m^2 (n = 3)) | General disorders and administration site conditions ≥Grade 3, number of patients (monotherapy 20 mg/m^2 (n = 3)) | Hallucinations ≥Grade 3, number of patients (monotherapy 20 mg/m^2 (n = 3)) | Heart failure ≥Grade 3, number of patients (monotherapy 20 mg/m^2 (n = 3)) | Hepatic failure ≥Grade 3, number of patients (monotherapy 20 mg/m^2 (n = 3)) | Hepatobiliary disorders ≥Grade 3, number of patients (monotherapy 20 mg/m^2 (n = 3)) | Hypocalcemia ≥Grade 3, number of patients (monotherapy 20 mg/m^2 (n = 3)) | Hypoglycemia ≥Grade 3, number of patients (monotherapy 20 mg/m^2 (n = 3)) | Hypokalemia ≥Grade 3, number of patients (monotherapy 20 mg/m^2 (n = 3)) | Hyponatremia ≥Grade 3, number of patients (monotherapy 20 mg/m^2 (n = 3)) | Hypotension ≥Grade 3, number of patients (monotherapy 20 mg/m^2 (n = 3)) | Hypovolemia ≥Grade 3, number of patients (monotherapy 20 mg/m^2 (n = 3)) | Hypoxia ≥Grade 3, number of patients (monotherapy 20 mg/m^2 (n = 3)) | Investigations ≥Grade 3, number of patients (monotherapy 20 mg/m^2 (n = 3)) | Metabolism and nutritional disorders ≥Grade 3, number of patients (monotherapy 20 mg/m^2 (n = 3)) | Multi-organ failure ≥Grade 3, number of patients (monotherapy 20 mg/m^2 (n = 3)) | Musculoskeletal and connective tissue disorders ≥Grade 3, number of patients (monotherapy 20 mg/m^2 (n = 3)) | Neoplasms benign, malignant, and unspecified (incl. cysts and polyps) ≥Grade 3, number of patients (monotherapy 20 mg/m^2 (n = 3)) | Penile Pain ≥Grade 3, number of patients (monotherapy 20 mg/m^2 (n = 3)) | Platelet count decreased ≥Grade 3, number of patients (monotherapy 20 mg/m^2 (n = 3)) | Pneumonia ≥Grade 3, number of patients (monotherapy 20 mg/m^2 (n = 3)) | Psychiatric disorders ≥Grade 3, number of patients (monotherapy 20 mg/m^2 (n = 3)) | Renal and urinary disorders ≥Grade 3, number of patients (monotherapy 20 mg/m^2 (n = 3)) | Reproductive system and breast disorders ≥Grade 3, number of patients (monotherapy 20 mg/m^2 (n = 3)) | Respiratory distress ≥Grade 3, number of patients (monotherapy 20 mg/m^2 (n = 3)) | Respiratory failure ≥Grade 3, number of patients (monotherapy 20 mg/m^2 (n = 3)) | Respiratory, thoracic, and mediastinal disorders ≥Grade 3, number of patients (monotherapy 20 mg/m^2 (n = 3)) | Tumor lysis syndrome ≥Grade 3, number of patients (monotherapy 20 mg/m^2 (n = 3)) | Vascular disorders ≥Grade 3, number of patients (monotherapy 20 mg/m^2 (n = 3)) | Abdominal Pain ≥Grade 3, number of patients (monotherapy 40 mg/m^2 (n = 3)) | Acidosis ≥Grade 3, number of patients (monotherapy 40 mg/m^2 (n = 3)) | Asthenia ≥Grade 3, number of patients (monotherapy 40 mg/m^2 (n = 3)) | Back Pain ≥Grade 3, number of patients (monotherapy 40 mg/m^2 (n = 3)) | Cardiac disorders ≥Grade 3, number of patients (monotherapy 40 mg/m^2 (n = 3)) | Cataract ≥Grade 3, number of patients (monotherapy 40 mg/m^2 (n = 3)) | Extremity Lower Edema ≥Grade 3, number of patients (monotherapy 40 mg/m^2 (n = 3)) | Eye disorders ≥Grade 3, number of patients (monotherapy 40 mg/m^2 (n = 3)) | Febrile neutropenia ≥Grade 3, number of patients (monotherapy 40 mg/m^2 (n = 3)) | Gastrointestinal disorders ≥Grade 3, number of patients (monotherapy 40 mg/m^2 (n = 3)) | General disorders and administration site conditions ≥Grade 3, number of patients (monotherapy 40 mg/m^2 (n = 3)) | Hallucinations ≥Grade 3, number of patients (monotherapy 40 mg/m^2 (n = 3)) | Heart failure ≥Grade 3, number of patients (monotherapy 40 mg/m^2 (n = 3)) | Hepatic failure ≥Grade 3, number of patients (monotherapy 40 mg/m^2 (n = 3)) | Hepatobiliary disorders ≥Grade 3, number of patients (monotherapy 40 mg/m^2 (n = 3)) | Hypocalcemia ≥Grade 3, number of patients (monotherapy 40 mg/m^2 (n = 3)) | Hypoglycemia ≥Grade 3, number of patients (monotherapy 40 mg/m^2 (n = 3)) | Hyponatremia ≥Grade 3, number of patients (monotherapy 40 mg/m^2 (n = 3)) | Hypotension ≥Grade 3, number of patients (monotherapy 40 mg/m^2 (n = 3)) | Hypovolemia ≥Grade 3, number of patients (monotherapy 40 mg/m^2 (n = 3)) | Hypoxia ≥Grade 3, number of patients (monotherapy 40 mg/m^2 (n = 3)) | Investigations ≥Grade 3, number of patients (monotherapy 40 mg/m^2 (n = 3)) | Multi-organ failure ≥Grade 3, number of patients (monotherapy 40 mg/m^2 (n = 3)) | Musculoskeletal and connective tissue disorders ≥Grade 3, number of patients (monotherapy 40 mg/m^2 (n = 3)) | Neoplasms benign, malignant, and unspecified (incl. cysts and polyps) ≥Grade 3, number of patients (monotherapy 40 mg/m^2 (n = 3)) | Penile Pain ≥Grade 3, number of patients (monotherapy 40 mg/m^2 (n = 3)) | Platelet count decreased ≥Grade 3, number of patients (monotherapy 40 mg/m^2 (n = 3)) | Pneumonia ≥Grade 3, number of patients (monotherapy 40 mg/m^2 (n = 3)) | Psychiatric disorders ≥Grade 3, number of patients (monotherapy 40 mg/m^2 (n = 3)) | Reproductive system and breast disorders ≥Grade 3, number of patients (monotherapy 40 mg/m^2 (n = 3)) | Respiratory distress ≥Grade 3, number of patients (monotherapy 40 mg/m^2 (n = 3)) | Respiratory failure ≥Grade 3, number of patients (monotherapy 40 mg/m^2 (n = 3)) | Tumor lysis syndrome ≥Grade 3, number of patients (monotherapy 40 mg/m^2 (n = 3)) | Vascular disorders ≥Grade 3, number of patients (monotherapy 40 mg/m^2 (n = 3)) | Abdominal Pain ≥Grade 3, number of patients (monotherapy 60 mg/m^2 (n = 3)) | Acidosis ≥Grade 3, number of patients (monotherapy 60 mg/m^2 (n = 3)) | Acute kidney injury ≥Grade 3, number of patients (monotherapy 60 mg/m^2 (n = 3)) | Asthenia ≥Grade 3, number of patients (monotherapy 60 mg/m^2 (n = 3)) | Back Pain ≥Grade 3, number of patients (monotherapy 60 mg/m^2 (n = 3))
4: Patients with AEs ≥Grade 3, number of patients (monotherapy 10 mg/m^2 (n = 6))
2: Leukocytosis ≥Grade 3, number of patients (monotherapy 10 mg/m^2 (n = 6)) | Pneumonia ≥Grade 3, number of patients (monotherapy 10 mg/m^2 (n = 6)) | Respiratory distress ≥Grade 3, number of patients (monotherapy 10 mg/m^2 (n = 6))
